Reference: patent US9408828B2, “(+)-3′-angeloyloxy-4′-keto-3′,4′-dihydroseselin for treating inflammation” (Hong Kong Baptist University, priority 2014, dated 2016)

Key:
Assay type in all cases: cell-based, murine
IκB-α = assay: Western blot of IκB-α degradation in LPS-stimulated RAW-Blue cells; conditions: LPS 1 μg/mL, Pd-Ib 5, 10, 20 μg/mL, 20 h; compared to LPS-stimulated macrophage
Experimental: Data are derived from three independent experiments and presented as mean±SEM. ^#Compared with control group. *P<0.05 is compared with LPS-alone group.
(§1) After Raw-Blue cells are treated with LPS and Pd-Ib, whole cell extract is prepared with lysis buffer [1% Triton X-100, 0.1% SDS, 0.5% deoxycholate, 1 mM EDTA, 20 mM Tris (pH 7.4), 150 mM NaCl, 10 mM NaF, 1 mM Na3VO4, 0.1 mM phenylmethylsulfonyl fluoride and one protease inhibitor cocktail tablet (Roche, USA)]. Total protein concentration is measured using a protein assay kit, followed by centrifugation at 13,500 rpm for 15 minutes at 4° C., then 10-25 μg of protein from the supernatants is then separated on 10% sodium dodecylsulphate-polyacrylamide gel (SDS-PAGE) and transferred on to polyvinylidene difluoride membranes. After blocking with 5% skim milk powder in Tris-buffered saline-Tween (TBST; 50 mM Tris, 150 mM NaCl, pH 7.4; 0.01% Tween-20) for 1 hour at room temperature, the membrane is then incubated with primary antibody (1:5,000 dilution) in 5% skim milk in TBST overnight at 4° C. […] The membrane is rewashed (TBST; 3×10 min), and the immune-reactive proteins are detected by enhanced chemiluminescence using X-ray film and ECL reagent. The protein bands are quantified by measuring the relative intensity compared to the control using Image J Software (version 4.1.7, NIH, USA).

NF-κB p65 = assay: Immunofluorescence staining of NF-κB nuclear translocation; conditions: 5-20 μg/mL pretreatment 2 hours, LPS 1 μg/mL 20 hours
Experimental: Data are derived from three independent experiments. Original magnification, 40×.
Raw-Blue cells are cultured (20×10^4 cells/well) on glass coverslips and incubated for 24 hours. Cells are pretreated with various concentrations (5-20 μg/mL) of Pd-Ib for 2 hours. Then treated with LPS (1 μg/mL) for 20 hours. Subsequently, the coverslips are rinsed twice with PBS, and cells are fixed in 4% paraformaldehyde (PFA) in PBS at room temperature for 15 minutes. Cellular and nuclear membranes of the macrophages are permeabilized by treatment with 3% Triton X-100 in PBS for 15 minutes. After being blocked with 3% bovine serum albumin (BSA) in PBS for 1 hour, the cells is incubated with primary antibody in 3% BSA/PBS (1:500 dilution) at 4° C. overnight. After washing with PBS, the cells are incubated with the red-conjugated secondary antibody (1:500 dilution) in 3% BSA/PBS at room temperature for 1 hour and finally washed again for three time with PBS. Then, counter-staining is performed with DAPI (1:1,000 dilution) in 3% BSA/PBS nucleus with for 10 minutes. The cells are washed for three times with PBS, and then anti-fade mounting medium is added. Samples are observed under a fluorescence microscope.

iNOS [1] = assay: Western blot of iNOS protein in LPS-stimulated RAW-Blue cells; conditions: LPS 1 μg/mL, 5, 10, 20 μg/mL, 20 h
Experimental: (§2) Data are derived from three independent experiments and presented as mean±SEM. ^#Compared with control group. *P<0.05, **P<0.01 and ***P<0.001 are compared with LPS-alone group.
as §1

COX-2 = assay: Western blot of COX-2 protein in LPS-stimulated RAW-Blue cells; conditions: LPS 1 μg/mL, 5, 10, 20 μg/mL, 20 h
Experimental: as §2, §1

iNOS [2] = assay: Real-time PCR of iNOS mRNA in LPS-stimulated RAW-Blue cells; conditions: LPS 1 μg/mL, 5, 10, 20 μg/mL, 20 hours
Experimental: (§3) After macrophages are treated with 1 μg/mL of LPS in absence or presence various concentrations of Pd-Ib (5, 10, 20 μg/mL) for 20 hours, the mRNA levels of iNOS (A), TNF-α (B) and IL-1β (C) are determined by real time PCR, while the production of NO (D) is determined by Griess reagent. Data are derived from three independent experiments and presented as mean±SEM, “con” stands for the vehicle control group. ^#Compared with control group. *P<0.05, **P<0.01 and ***P<0.001 are compared with LPS-alone group.
(§4) Raw-Blue cells are plated at 20×10^5 cells/well in 12-well plate. After 24 hours of incubation, cells are pretreated with various concentrations (5-20 μg/mL) of Pd-Ib for 2 hours, followed by co-culturing with LPS (1 μg/mL) for 20 hours. Total RNA of Raw-Blue cells is extracted by Trizol reagent. Two micrograms (2 μg) of total RNA are reverse-transcribed with RT master mix to obtain cDNA. Real-time PCR is performed in a ViiA7 real-time PCR instrument (Applied Biosystems, Life Technologies, CA, USA) with the SYBR Green kit. A melting curve analysis is carried out after amplification to verify the accuracy of the amplicon. The comparative cycle of threshold (ΔΔCT) method of relative quantification is used to determine the fold-change in expression. Primer sequences for mRNA analysis of IL-1β, TNF-α, iNOS and β-Actin are described in Table 1.

TNF-α = assay: Real-time PCR of TNF-α mRNA in LPS-stimulated RAW-Blue cells; conditions: LPS 1 μg/mL, 5, 10, 20 μg/mL, 20 hours
Experimental: as §3, §4

[3] = test system: nitric oxide (NO) production in LPS-stimulated RAW-Blue cells; assay: Nitric oxide production determination (Griess reagent); conditions: Mus musculus, LPS 1 μg/mL 20 hours
Experimental: as §3
Nitric oxide (NO) production is indirectly assessed by measuring the nitrite levels in the cultured medium determined by a colorimetric method based on the Griess reagent and sodium nitrite as a standard substance. The cells are pretreated with various concentrations of Pd-Ib (5-20 μg/mL). Two hours later, cells are incubated for another 20 hours in the presence of LPS (1 μg/mL) at 37° C. Then, 100 μL of each supernatant is mixed with the equal volume of Griess reagent. The samples are incubated at room temperature for 15 min. The optical densities are measured at 540 nm with a micro-plate reader and nitrite concentration is determined using a standard curve generated with known concentrations of sodium nitrite.

With `C/C=C(\C)C(=O)OC1C(=O)c2c(ccc3ccc(=O)oc23)OC1(C)C` (single isomer, unassigned; (+)) [Pd-Ib, (+)-3′-Angeloyloxy-4′-keto-3′,4′-dihydroseselin] the IκB-α degradation (IκB-α) was “inhibits IκB-α degradation in a dose-dependent manner”, the p65 nuclear translocation (NF-κB p65) was “significantly inhibits the p65 nuclear translocation” and the iNOS protein level (iNOS [1]) was “strongly down-regulates”. The COX-2 protein level (COX-2) was “strongly down-regulates”, the “mRNA level of iNOS” value (iNOS [2]) was “remarkedly inhibits the mRNA level of iNOS in a dose-dependent manner” and the “mRNA expression of TNF-α” value (TNF-α) was “inhibit the mRNA expressions of TNF-α and IL-1β in a dose-dependent manner”. The inhibition at 5 µg/mL ([3]; 5 μg/mL) was 17.6 ± 2.96%, the inhibition at 10 µg/mL ([3]; 10 μg/mL) was 29.8 ± 1.34% and the inhibition at 20 µg/mL ([3]; 20 μg/mL) was 55.5 ± 1.15%.
